Values of other authors, collected in patent US12000829B2, “Selection of patients for combination therapy” (SYNDAX PHARMACEUTICALS, INC., priority 2018, dated 2024).
Like-named read-outs stand apart in the source and are kept apart here.

Key:
[1] = system: human carcinoma cell lines
[2] = system: modestly immunogenic mouse tumors; details: in combination with immune checkpoint blockade agents
[3] = system: syngeneic mouse tumor models of lung and renal cell carcinoma; details: two syngeneic mouse tumor models; tumor growth and survival
[4] = system: MDSCs and CD14+HLA-DR^Hi monocytes; details: ER+ breast cancer patients, combined with exemestane
[5] = system: squamous or non-squamous NSCLC; details: NSCLC and metastatic melanoma cohorts

## Pembrolizumab: humanized monoclonal IgG4 anti-PD-1 antibody
melanoma; human, in vivo
  additional patients with unconfirmed responses: 8 patients
  biopsies of responding tumors: dense infiltration by CD8^+ T cells
melanoma; less dose intense cohorts
  rate of severe toxicities: < 10%

## avelumab: fully human anti-PD-L1 IgG1 antibody
[1]; NK cells as effectors
  lysis: Lysis was increased
[1]; NK cells preactivated with IL-12
  lysis: increased lysis
[1]; NK-mediated ADCC vs whole PBMCs or dendritic cells isolated from PBMCs
  lysis: Little or no lysis
[1]; PBMCs as effectors
  human carcinoma cell lines in which ADCC was induced: 8 out of 18
[1]; tumor cell lines pretreated with IFN-γ
  cell lines with augmented lysis: 4 out of 10

## Nc1ccccc1NC(=O)c1ccc(CNC(=O)OCc2cccnc2)cc1 [Entinostat, N-(2-aminophenyl)-4-[N-(pyridine-3-yl)methoxycarbonylamino-methyl]-benzamide]
[2]
  effect on tumors: can eradicate modestly immunogenic mouse tumors
[3]
  antitumor effect of PD-1 inhibition: enhanced the antitumor effect of PD-1 inhibition
[4]
  effect on CD14+HLA-DR^Hi monocytes in patients: increased immunocompetent CD14+HLA-DR^Hi monocytes
  effect on MDSCs in patients: reduction of immunosuppressive MDSCs

## MPDL3280A: human anti-PD-L1 mAb with engineered Fc domain minimizing ADCC
[5]
  responses: durable responses
